Data from ChEMBL document CHEMBL1146512, “Ketene acetal and spiroacetal constituents of the marine fungus Aigialus parvus BCC 5311” (J Nat Prod, 2004).
Active and inactive are the calls of the source.

Experiments:
Plasmodium falciparum = assay: Antimalarial activity against Plasmodium falciparum K1; format: functional, organism-based
[1] = test system: Mycobacterium tuberculosis; assay: Antitubercular activity against Mycobacterium tuberculosis H37Ra; format: functional, organism-based
Human alphaherpesvirus 1 = assay: Antiviral activity against HSV1; format: functional, organism-based
Candida albicans = assay: Antifungal activity against Candida albicans; format: functional, organism-based
KB = assay: Cytotoxicity against human KB cells; format: functional, cell-based
BC1 = assay: Cytotoxicity against human BC1 cells; format: functional, cell-based

Measured: Activity

COc1cc(O)c2c(c1)[C@@H]([C@H]1C[C@H](O)[C@H](O)[C@@]3(C=CC[C@H](C)O3)O1)OC2=O
inactive: Plasmodium falciparum | [1] | Human alphaherpesvirus 1 | Candida albicans | KB | BC1

CCCCCCC[C@@H]1OC2=C(C(=O)[C@H](C)O2)[C@H](O)[C@@]1(C)O
inactive: Plasmodium falciparum | [1] | Human alphaherpesvirus 1 | Candida albicans | KB | BC1
